Molecular target: STAT6 (Homo sapiens (Human), UniProt P42226)
Assay: STAT6 degrader assay (HiBiT, HeLa LgBiT clone 4.14)
Format: cell-based
Settings: HeLa LgBiT clone 4.14, 4-24 h; geometric mean; given for compounds with >80% Emax; read-out: STAT6 degradation DC50
Method: This was a HiBit based assay. A HeLa cell line stably transfected with a small protein, LgBit (Large Bit) was obtained from Promega. These cells express endogenous STAT6. A small 11 amino acid gene sequence (HiBiT) was inserted in the STAT6 gene using CRISPR technology. Once STAT6 protein is expressed in the cells, the HiBiT sequence will bind the LgBit in the cells resulting in a functional NanoBiT protein, giving a luminescent tag to STAT6, see FIG. 2.
Single cell clones were prepared and the clone 4.14 was selected for the assay based on that clone showing high luminescence, high STAT6 phosphorylation upon stimulation with IL-4, and inhibition of luminescence when cells were treated with STAT6 siRNA.
HeLa LgBiT clone 4.14 cells were suspended in DMEM with 10% FCS, 1% Pen/Strep, Na-pyrovate and Hygromycin B, at a concentration of 1.25*105 cells pr mL. 5000 cells were added pr well of a 384 well plate and 20 nL of compound was added by Echo® liquid handler. NN6394A (terfenadine, a toxic compound) was added to control wells at 50 μM concentration to establish the assay window. In these wells the cells are dead which equals 100% degradation of STAT6.
After 4-24 h of incubation at 37° C. under 5% CO2/95% air, 5 μL substrate (Nano-GLO®) was added to the wells and the plates were centrifuged and incubated for 0.5 h.
The luminescence in the wells as a measure of non-degraded STAT6 was measured in a plate reader (BMG Pherastar FSX). The measured DC50 (in nM) was determined.
The dose-response curves Examples 3p1, 3e50, 3e17, and 3e51 are shown below (where percent degradation is plotted vs. test compound concentration in M on a log-scale).

STAT6, sequence (P42226 whole entry): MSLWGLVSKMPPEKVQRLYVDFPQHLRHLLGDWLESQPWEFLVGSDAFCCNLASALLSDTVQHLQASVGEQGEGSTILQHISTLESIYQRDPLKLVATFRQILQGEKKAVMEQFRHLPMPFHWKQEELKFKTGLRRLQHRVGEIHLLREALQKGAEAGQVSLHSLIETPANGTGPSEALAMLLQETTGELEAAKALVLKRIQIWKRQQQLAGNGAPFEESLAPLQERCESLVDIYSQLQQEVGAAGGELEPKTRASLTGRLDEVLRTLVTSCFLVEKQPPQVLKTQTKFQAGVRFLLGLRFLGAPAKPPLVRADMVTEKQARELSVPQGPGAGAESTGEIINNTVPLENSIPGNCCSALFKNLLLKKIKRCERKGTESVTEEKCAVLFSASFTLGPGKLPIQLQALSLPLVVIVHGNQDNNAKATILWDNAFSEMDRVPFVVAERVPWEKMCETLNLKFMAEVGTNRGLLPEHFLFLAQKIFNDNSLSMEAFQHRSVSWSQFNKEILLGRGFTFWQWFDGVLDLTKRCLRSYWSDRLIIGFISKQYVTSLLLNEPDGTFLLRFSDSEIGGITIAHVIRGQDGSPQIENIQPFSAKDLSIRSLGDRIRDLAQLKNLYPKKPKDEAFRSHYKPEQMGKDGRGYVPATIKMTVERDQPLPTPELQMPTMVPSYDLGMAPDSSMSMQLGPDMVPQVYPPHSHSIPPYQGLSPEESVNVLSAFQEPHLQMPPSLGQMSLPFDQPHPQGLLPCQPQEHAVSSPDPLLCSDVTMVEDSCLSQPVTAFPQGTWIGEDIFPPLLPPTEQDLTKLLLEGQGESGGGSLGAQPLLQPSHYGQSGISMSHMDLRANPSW

DC50 | SMILES
1.4 nM | CNc1ccc(-c2ccnc3c2cc([C@H](C)N2CC=C(c4c(C)cc(C(=O)N5CCC(CN6CCN(Cc7ccc8c(c7)n(C7CC7)c(=O)n8[C@@H]7CCC(=O)NC7=O)C[C@@H]6C)CC5)cc4F)CC2)n3C)cn1 [Example 3h7, (R)-3-(3-cyclopropyl-5-(((S)-4-((1-(3-fluoro-5-methyl-4-(1-((S)-1-(1-methyl-4-(6-(methylamino)pyridin-3-yl)-1H-pyrrolo[2,3-b]pyridin-2-yl)ethyl)-1,2,3,6-tetrahydropyridin-4-yl)benzoyl)piperidin-4-yl)methyl)-3-methylpiperazin-1-yl)methyl)-2-oxo-2,3-dihydro-1H-benzo[d]imidazol-1-yl)piperidine-2,6-dione]
1.1 nM | CNc1ccc(-c2ccnc3c2cc([C@H](C)N2CCC(c4ccc(C(=O)N5CCC(CN6CCN(Cc7ccc8c(c7)n(C)c(=O)n8[C@@H]7CCC(=O)NC7=O)C[C@@H]6C)CC5)cc4)CC2)n3C)cn1 (single isomer, unassigned) [Example 3h3]
1 nM | CNc1ccc(-c2ccnc3c2cc([C@H](C)N2CCC(c4ccc(C(=O)N5CCC(CN6CCN(Cc7cc8c(cc7F)n(C7CCC(=O)NC7=O)c(=O)n8C)C[C@@H]6C)CC5)cc4)CC2)n3C)cn1 (stereo partly drawn) [Example 3h21, 3-(6-fluoro-3-methyl-5-(((S)-3-methyl-4-((1-(4-(1-((S)-1-(1-methyl-4-(6-(methylamino)pyridin-3-yl)-1H-pyrrolo[2,3-b]pyridin-2-yl)ethyl)piperidin-4-yl)benzoyl)piperidin-4-yl)methyl)piperazin-1-yl)methyl)-2-oxo-2,3-dihydro-1H-benzo[d]imidazol-1-yl)piperidine-2,6-dione]
1.1 nM | C[C@H]1CN(Cc2ccc3c(c2)n(C)c(=O)n3C2CCC(=O)NC2=O)CCN1CC1CCN(C(=O)c2ccc(N3CCN(Cc4cc5c(-c6ccc(N)nc6)ccnc5n4C)CC3)cc2)CC1 (stereo partly drawn) [Example 3h14, 3-(5-(((S)-4-((1-(4-(4-((4-(6-aminopyridin-3-yl)-1-methyl-1H-pyrrolo[2,3-b]pyridin-2-yl)methyl)piperazin-1-yl)benzoyl)piperidin-4-yl)methyl)-3-methylpiperazin-1-yl)methyl)-3-methyl-2-oxo-2,3-dihydro-1H-benzo[d]imidazol-1-yl)piperidine-2,6-dione]
1.1 nM | Cc1cc(C(=O)N2CCC(CN3CCN(Cc4ccc5c(c4)n(C4CC4)c(=O)n5C4CCC(=O)NC4=O)C[C@@H]3C)CC2)cc(F)c1C1=CCN([C@@H](C)c2cc3c(-c4ccc(N)nc4)ccnc3n2C)CC1 (stereo partly drawn) [Example 3h15, 3-(5-(((S)-4-((1-(4-(1-((S)-1-(4-(6-aminopyridin-3-yl)-1-methyl-1H-pyrrolo[2,3-b]pyridin-2-yl)ethyl)-1,2,3,6-tetrahydropyridin-4-yl)-3-fluoro-5-methylbenzoyl)piperidin-4-yl)methyl)-3-methyl-piperazin-1-yl)methyl)-3-cyclopropyl-2-oxo-2,3-dihydro-1H-benzo[d]imidazol-1-yl)piperidine-2,6-dione]
2.8 nM | CC(C)[C@H]1CN(Cc2ccc3c(c2)n(C)c(=O)n3C2CCC(=O)NC2=O)CCN1CC1CCN(C(=O)c2ccc(C3CCN([C@@H](C)c4cc5c(-c6ccc(N)nc6)ccnc5n4C)CC3)cc2)CC1 (stereo partly drawn) [Example 3e21, 3-(5-(((S)-4-((1-(4-(1-((S)-1-(4-(6-aminopyridin-3-yl)-1-methyl-1H-pyrrolo[2,3-b]pyridin-2-yl)ethyl)piperidin-4-yl)benzoyl)piperidin-4-yl)methyl)-3-iso-propylpiperazin-1-yl)methyl)-3-methyl-2-oxo-2,3-dihydro-1H-benzo[d]imidazol-1-yl)piperidine-2,6-dione]

Same assay, conditions: HeLa LgBiT clone 4.14, 4-24 h; read-out: STAT6 degradation Emax (%)

SMILES | Emax
Cn1c(CN2CCC(c3ccc(C(=O)N4CCC(CN5CCN(Cc6ccc7c(c6)oc(=O)n7C6CCC(=O)NC6=O)CC5)CC4)cc3)CC2)cc2c(-c3ccc(N)nc3)ccnc21 (stereo not drawn) [Example 3n1, 3-(6-((4-((1-(4-(1-((4-(6-aminopyridin-3-yl)-1-methyl-1H-pyrrolo[2,3-b]pyridin-2-yl)methyl)piperidin-4-yl)benzoyl)piperidin-4-yl)methyl)piperazin-1-yl)methyl)-2-oxobenzo[d]oxazol-3 (2H)-yl)piperidine-2,6-dione] | 60 to 70%
Cn1c(CN2CCC(c3ccc(C(=O)N4CCN(CC5CCN(Cc6ccc7c(c6)n(C)c(=O)n7C6CCC(=O)NC6=O)CC5)CC4)cc3)CC2)cc2c(-c3ccc4[nH]ncc4c3)ccnc21 (stereo not drawn) [Example 3f1, 3-(5-((4-((4-(4-(1-((4-(1H-indazol-5-yl)-1-methyl-1H-pyrrolo[2,3-b]pyridin-2-yl)methyl)-piperidin-4-yl)benzoyl)piperazin-1-yl)methyl)piperidin-1-yl)methyl)-3-methyl-2-oxo-2,3-dihydro-1H-benzo[d]imidazol-1-yl)piperidine-2,6-dione] | 40 to 50%

The next lines start with the values.

Emax | SMILES
20 to 30% | Cn1c(CN2CCC(c3ccc(C(=O)N4CCC(Cn5cc(-c6cccc7c6n(C)c(=O)n7C6CCC(=O)NC6=O)cn5)CC4)cc3)CC2)cc2c(-c3ccc4[nH]ncc4c3)ccnc21 (stereo not drawn) [Example 3l1, 3-(4-(1-((1-(4-(1-((4-(1H-indazol-5-yl)-1-methyl-1H-pyrrolo[2,3-b]pyridin-2-yl)methyl)piperidin-4-yl)benzoyl)piperidin-4-yl)methyl)-1H-pyrazol-4-yl)-3-methyl-2-oxo-2,3-dihydro-1H-benzo[d]imidazol-1-yl)piperidine-2,6-dione]
50 to 60% | Cn1c(CN2CCC(c3ccc(C(=O)N4CCC(CN5CCN(Cc6cccc7c6n(C)c(=O)n7C6CCC(=O)NC6=O)CC5)CC4)cc3)CC2)cc2c(-c3ccc4[nH]ncc4c3)ccnc21 (stereo not drawn) [Example 3i1, 3-(4-((4-((1-(4-(1-((4-(1H-indazol-5-yl)-1-methyl-1H-pyrrolo[2,3-b]pyridin-2-yl)methyl)-piperidin-4-yl)benzoyl)piperidin-4-yl)methyl)piperazin-1-yl)methyl)-3-methyl-2-oxo-2,3-dihydro-1H-benzo[d]imidazol-1-yl)piperidine-2,6-dione]
30 to 40% | Cn1c(CN2CCC(c3ccc(C(=O)N4CCC(Cn5cc(-c6ccc7c(c6)n(C)c(=O)n7C6CCC(=O)NC6=O)cn5)CC4)cc3)CC2)cc2c(-c3ccc4[nH]ncc4c3)ccnc21 (stereo not drawn) [Example 3l3, 3-(5-(1-((1-(4-(1-((4-(1H-indazol-5-yl)-1-methyl-1H-pyrrolo[2,3-b]pyridin-2-yl)methyl)piperidin-4-yl)benzoyl)piperidin-4-yl)methyl)-1H-pyrazol-4-yl)-3-methyl-2-oxo-2,3-dihydro-1H-benzo[d]imidazol-1-yl)piperidine-2,6-dione]
< 20% | Cn1c(CN2CCC(c3ccc(C(=O)N4CCC(Cn5cc(-c6cccc7c6n(C)c(=O)n7C6CCC(=O)NC6=O)nn5)CC4)cc3)CC2)cc2c(-c3ccc4[nH]ncc4c3)ccnc21 (stereo not drawn) [Example 3t2, 3-(4-(1-((1-(4-(1-((4-(1H-indazol-5-yl)-1-methyl-1H-pyrrolo[2,3-b]pyridin-2-yl)methyl)piperidin-4-yl)benzoyl)piperidin-4-yl)methyl)-1H-1,2,3-triazol-4-yl)-3-methyl-2-oxo-2,3-dihydro-1H-benzo[d]imidazol-1-yl)piperidine-2,6-dione]

Source: patent publication US20250325677A1, “STAT6 DEGRADERS” (Gilead Sciences, Inc., priority 2024, published 2025)
